For four compounds, bioavailability and Papp results are on record in ChEMBL document CHEMBL4673354, “N-(Methyloxycarbonyl)thiophene sulfonamides as high affinity AT2 receptor ligands” (Bioorg Med Chem, 2021).

By bioavailability is commonly meant the share of a dose that reaches the circulation, judged against a reference dose that is usually intravenous. Higher therefore signals good availability. One may read the Papp as the rate of passage across a membrane or cell layer, normalised by area and donor concentration.

Data set [1] can be described thus: Oral bioavailability in rat. It counts as ADME, organism-based. As to conditions: in vivo.
A short description of data set [2]: Apparent permeability across apical to basolateral side and basolateral to apical side in human Caco-2 cells at 5 uM measured up to 60 mins by LC-MS/MS analysis. The class given is ADME, cell-based.

In data set [1], `COc1ccc2c(c1OCc1ccccc1)CC(C(=O)O)N(C(=O)C(c1ccccc1)c1ccccc1)C2` (centres undefined) returned a bioavailability of 33%.
`CCCCOC(=O)NS(=O)(=O)c1sc(CC(C)C)cc1-c1cccc(Cn2ccnc2)c1`: the Papp at 1 h, 5 µM in data set [2] was 3.4 ×10⁻⁶ cm/s.
On to `CCCCOC(=O)NS(=O)(=O)c1sc(CC(C)C)cc1-c1cccc(C(=O)Cn2cnc3cc(C)c(C)cc32)c1`, for which the Papp at 1 h, 5 µM in data set [2] came to 0.4 ×10⁻⁶ cm/s.
Still for that read-out and setting: the figure for `COc1ccc2c(c1OCc1ccccc1)C[C@@H](C(=O)O)N(C(=O)C(c1ccccc1)c1ccccc1)C2` [OLODANRIGAN] is 1.8 ×10⁻⁶ cm/s.
